Values after ≈ are worked out from the molar mass of the structure shown.
What was measured:
[1] = system: HepG2(liver), HT29(colon) and MCF-7(breast); assay: MTT cell cytotoxicity assay, three cancer cell lines; type: cell-based; details: Homo sapiens; 48 hours; range over the three cell lines
Procedure: Three human cancer cell lines (HepG2(liver), HT29(colon) and MCF-7(breast)) were purchased from American Type Culture Collection (ATCC, Manassas, Va., USA). The cells were cultured in RPMI 1640 medium supplemented with 5% (v/v) fetal bovine serum (FBS) and 100 units/ml penicillin and streptomycin (Invitrogen Life Technologies) in a humidified 5% CO2 atmosphere at 37° C.
(§1) The cytotoxic effect of CuB and CuD on these three cancer cell lines were determined using MTT (3-[4,5-dimethylthiazol-2-yl]-2,5-diphenyl tetrazolium bromide) labeled cell cytotoxicity assay. A total of 1×10^4 cells were seeded into a 96-well plate for 24 hours prior to cucurbitacin B (CuB) or cucurbitacin D (CuD) treatment. They were then treated with different dosages of CuB/CuD for 48 hours. After the treatment, 20 μl of MTT (5 mg/ml) was added to each well and incubated for 4 hrs. Then the medium was discarded and 100 μl of dimethyl sulfoxide was added. The absorbance at 570 nm was then measured by using FLUOstar OPTIMA equipment (BMG, LABTECH GmbH, Germany). The percentage of inhibition against different dosages of CuB/CuD were plotted using the Prism software and the 50% inhibition concentration (IC50) were obtained.

Panc-1 = assay: MTT cell cytotoxicity assay, Panc-1; type: cell-based; details: Homo sapiens
Procedure: Three human pancreatic cancer cell lines (Panc-1, Panc 02.13, Panc 10.05) were purchased from American Type Culture Collection (ATCC, Manassas, Va., USA). Panc 02.13 and Panc 10.05 were grown in RPMI 1640 medium supplemented with 15% FBS, 4.5 g/L glucose, 10 mM HEPES, and 1.0 mM sodium pyruvate and 10 Units/ml human insulin; while PANC-1 was grown in Dulbecco's modified Eagle's medium supplemented with 10% FBS. They were maintained in a humidified 5% CO2 atmosphere at 37° C. and the culture medium was changed once in 2 days.
as §1, with “CuB” for “CuB and CuD”, “(CuB)” for “(CuB) or cucurbitacin D (CuD)”, “CuB” for “CuB/CuD”, “by” for “by using”, “obtained. […]” for “obtained.”

[2] = system: HL60 cells and U937 cells; assay: Cytocentrifuged, fixed and stained cells (multinucleation); type: cell-based, human; details: 1×10^−8 M or 5×10^−8 M, 96 hours
Procedure: HL60 cells, as depicted in FIGS. 13A to 13C, and U937 cells, as depicted in FIGS. 13D to 13F, were cytocentrifuged, fixed and stained. Cells were treated with either 1×10^−8 M (FIGS. 13B, 13C and 13E) or 5×10^−8 M (FIG. 13F) cucurbitacin B for 96 hours, and compared with diluent treated control cells (FIGS. 13A and […]).

Stat3 = assay: Western blot of Stat3 activation in HepG2, HT29 and MCF-7 cells; type: cell-based, human
[3] = system: human MDA-MB-231 breast cancer cells; assay: Orthotopic human breast cancer model in nude mice; type: in vivo
Procedure: One million human MDA-MB-231 breast cancer cells/Matrigel (vol 1:1) were inoculated isotopically into the breasts of nude mice. The mice received intraperitoneal injections of 1 mg/ml of cucurbitacin B 3 times a week starting on the day after inoculation of the cells. The longitudinal and the transverse diameter, and the height were measured once a week. The volume was calculated by multiplying these elements, and the relative tumor size was determined by dividing the product by the initial volume. After 6 weeks, the mice were sacrificed to weigh the dissected tumors. At that moment, blood was taken for analysis, where organs and tumors were inspected, dissected, fixed and stained with hematoxylin-eosin and/or Ki-67. Data were expressed as mean±SD. Statistical analysis was performed by student's t test.
Six weeks after i.p. treatment with either vehicle or cucurbitacin B 1 mg/kg three times a week, mice were euthanized and tumors were observed and weighed. Results represented the mean and SD of 9 treated and 9 control tumors. Statistical analysis was performed by student's t test.

Panc-1 and SW cells = assay: Cell cycle analysis by flow cytometry, pancreatic cells; type: cell-based, human; details: different periods
Procedure: Panc-1 and SW cells were incubated with cucurbitacin B for different periods at 37° C. At specific time points, cells were washed and fixed with chilled 80% ethanol, and incubated on ice for 30 min. prior to staining with propidium iodide. All analyses were performed by flow cytometry.

[4] = system: Human pancreatic cancer cell line Panc-1; assay: Hollow fiber assay, Panc-1; type: in vivo, nude mice; details: up to 8 days
Procedure: The hollow fiber assay (HFA) was developed by the NCI as a high-throughput, preliminary in vivo screening assay for the evaluation of anti-cancer agents.
Human pancreatic cancer cell line Panc-1 were in vitro cultured inside hollow fibers for overnight, followed by in vivo implantation at s.c. sites of the nude mice. Mice were treated with vehicle control (0.5% CMC), positive control (100 mg/kg Gemcitabine) and 3 doses of cucurbitacin B (0.1 mg/kg, 0.5 mg/kg and 1.0 mg/kg) for up to 8 days. Then the fibers were excised and analyzed for cell viability by MTT assay. An additional group, the growth control group was also included in the assay. Mice in this group were sacrificed on the first day of treatment, and fibers were excised and analyzed for cell viability by MTT assay. The efficacies of cucurbitacin B against Panc-1 were expressed as the inhibited (or not) net growth percentage of the cancer cells when compared to the vehicle control group.

CC(=O)OC(C)(C)/C=C/C(=O)[C@](C)(O)C1[C@H](O)C[C@@]2(C)C3CC=C4C(C[C@H](O)C(=O)C4(C)C)[C@]3(C)C(=O)C[C@]12C (some centres unmarked) [cucurbitacin B]
IC50 [1]: 0.31 to 1.6 µg/mL (≈ 0.555 to 2.86 µM)
GI50 (Panc-1; MTT, 48 hours): 12.4 µM
IC50 (Panc-1; read-out: IC50 (dose used for western blot)): 0.8 µM
cell morphology (multinucleation) [2]: enlarged, multinucleated cells
Stat3 activation (Stat3; HepG2 cells and HT29 cells, 25 ug/ml, 30 minutes): inhibited significantly
Stat3 activation (Stat3; MCF-7 cells): no significant change
weight of dissected tumors vs vehicle treated mice ([3]; i.p. 1 mg/kg three times a week, six weeks): weighed significantly less
growth of MDA-MB-231 tumors compared with control ([3]; intraperitoneal 1 mg/kg 3 times a week, 6 weeks): 50.1%
cell cycle effect (Panc-1 and SW cells): arrest at G1 and/or G2 phase
net-growth of Panc-1 compared to the vehicle control group ([4]; 0.1 mg/kg and 0.5 mg/kg): about 40%
net cell growth of Panc-1 in hollow fibers ([4]; 0.1 mg/kg, 0.5 mg/kg and 1.0 mg/kg): potently inhibited
